# Assay results published in patent EP0006452A1, “Hypoglycemic phenylpropynylamino benzoic acids, their salts, pharmaceutical compositions containing said compounds and their application” (THE DOW CHEMICAL COMPANY, priority 1978, dated 1980).
# System: alanine-induced hyperglycemic mice
# Test: Hypoglycemic activity in alanine-induced hyperglycemic mice (serum glucose lowering)
# Format: in vivo
# Conditions: for percent lowering of serum glucose as compared to controls: fasted male Swiss-Webster mice, 10 m moles/kg L-alanine i.p. 15 min later, serum glucose 60 min after compound, 100% = lowering to fasting glucose level; for ED50: Mus musculus, ip, 1 h, intraperitoneal, lowering of serum glucose in alanine-induced hyperglycemic fasted male Swiss-Webster mice, read-out: ED50 (effective dose)
# Description: Alanine is the most glucogenic of the amino acids and also stimulates gluconeogensis in normal animals. Animals suffering from diabetes show an exaggerated hyperglycemic response to a protein or amino acid meal, therefore the hyperglycemic state induced by alanine closely parallels the response of a diabetic mammal.
# Fifteen minutes later the same mice were injected intraperitoneally with 10 m moles/kg body weight of L-alanine. […] The control consisted of both fasted mice and mice injected with alanine only. The results are expressed as percent lowering of serum glucose from the alanine induced hyperglycemic level to the fasted control glucose level, i.e. lowering to the fasting glucose level is 100% lowering.
# [1] = Dosage Level 7.5 mg/kg intraperitoneal
# [2] = Dosage Level 15 mg/kg intraperitoneal
# [3] = Dosage Level 30 mg/kg intraperitoneal
# [4] = Dosage Level 60 mg/kg intraperitoneal
Compound,percent lowering of serum glucose as compared to controls [1] [%],percent lowering of serum glucose as compared to controls [2] [%],percent lowering of serum glucose as compared to controls [3] [%],percent lowering of serum glucose as compared to controls [4] [%],ED50 [mg/kg],"hypoglycemic activity (in words) (summary of Table I, lowering the amount of glucose in the serum of the test animals)"
"O=C(O)c1ccc(NCC#Cc2ccccc2)cc1 [Example 1, 4-((3-phenyl-2-propynyl)-amino)benzoic acid]",36,79,98,132,8,
"O=C(O)c1ccc(NCC#Cc2ccc(F)cc2)cc1 [Example 3, 4((3-(4-fluoro)phenyl-2-propynyl)amino)benzoic acid]",2,66,91,172,18,
"O=C([O-])c1ccc(NCC#Cc2ccccc2)cc1.[Na+] [Example 2, 4-((3-phenyl-2-propynyl)-amino)benzoic acid-sodium salt]",44,69,114,139,,most active
"Cc1ccc(C#CCNc2ccc(C(=O)O)cc2)cc1 [Example 5, 4-((3-(4-Methyl)phenyl-2-propynyl)amino)benzoic acid]",9,15,118,76,21,
"O=C(O)c1ccc(NCC#Cc2ccc(Cl)cc2)cc1 [Example 4, 4-((3-(4-Chloro)phenyl-2-propynyl)amino)-ben zoic acid]",,,,39,,
